Test results reported in BindingDB's records for doi:10.1016/S0045-2068(03)00081-6 (Johns Hopkins University School of Medicine, 2003).

target: Serotonin N-acetyltransferase (Ovis aries) (UniProt Q29495); assay: AANAT activity was measured using a spectrophotometric assay in which the enzymatic product CoASH concentration were determined indirectly by monitoring its reaction product with DTNB at 412nm.; conditions: pH 6.8
Sequence (Q29495 whole entry, looked up): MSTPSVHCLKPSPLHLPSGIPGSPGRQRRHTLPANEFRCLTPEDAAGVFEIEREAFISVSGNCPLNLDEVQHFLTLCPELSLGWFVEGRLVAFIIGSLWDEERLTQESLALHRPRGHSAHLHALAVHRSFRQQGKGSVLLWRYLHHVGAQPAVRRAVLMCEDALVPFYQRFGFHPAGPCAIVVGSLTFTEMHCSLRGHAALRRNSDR

Row | Ki [nM] | SMILES
1 | 360 | CC(C)(COP(=O)(O)OP(=O)(O)OC[C@H]1OC(n2cnc3c(N)ncnc32)[C@@H](O)[C@@H]1OP(=O)(O)O)[C@@H](O)C(=O)NCCC(=O)NCCSCCCCCc1c[nH]c2ccccc12 (some centres undefined) [AANAT bisubstrate analog, 4]
2 | 310 | CC(C)(COP(=O)(O)OP(=O)(O)OC[C@H]1OC(n2cnc3c(N)ncnc32)[C@@H](O)[C@@H]1OP(=O)(O)O)[C@@H](O)C(=O)NCCC(=O)NCCSCCCCc1c[nH]c2ccccc12 (some centres undefined) [AANAT bisubstrate analog, 5]
3 | 840 | CC(C)(COP(=O)(O)OP(=O)(O)OC[C@H]1OC(n2cnc3c(N)ncnc32)[C@@H](O)[C@@H]1OP(=O)(O)O)[C@@H](O)C(=O)NCCC(=O)NCCSCCCc1c[nH]c2ccccc12 (some centres undefined) [AANAT bisubstrate analog, 6]
4 | 5840 | CC(C)(COP(=O)(O)OP(=O)(O)OC[C@H]1OC(n2cnc3c(N)ncnc32)[C@@H](O)[C@@H]1OP(=O)(O)O)[C@@H](O)C(=O)NCCC(=O)NCCSCCCNCCc1c[nH]c2ccccc12 (some centres undefined) [AANAT bisubstrate analog, 7]
